# Test system: F. ulcerans ZTP riboswitch (pfl RNA, 75-nt aptamer domain, crystal construct) (RNA, riboswitch) UAUCAGUUAUAUGACUGACGGAACGUGGAAUUAACCACAUGAAGUAUAACGAUGACAAUGCCGACCGUCUGGGCG
# Test: ITC
# Settings: 150 mM KCl, 10 mM MgCl2, 50 mM Hepes-KOH pH 7.4, 37 °C
SMILES,Kd,Kd (3% DMSO)
NC(=O)c1nc[nH]c1N,41 ± 4 µM,
NC(=O)c1ncn(-c2ccccn2)c1N,5.6 ± 3.2 µM,
NC(=O)c1ncn(-c2cccnc2)c1N,,0.60 ± 0.06 µM
NC(=O)c1ncn([C@@H]2O[C@H](CO)[C@@H](O)[C@H]2O)c1N,2.3 ± 0.6 µM,
NC(=O)c1ncn([C@@H]2O[C@H](COP(=O)(O)O)[C@@H](O)[C@H]2O)c1N,0.32 ± 0.13 µM,
